Experimental data: patent publication US20100081632A1, “High-content and high throughput assays for identification of lipid-regulating pathways, and novel therapeutic agents for lipid disorders” (Odyssey Thera, Inc., priority 2008, published 2010)

What was measured:
PCSK9/LDLR complex = test: PCSK9/LDLR protein complementation assay (PCA) in transfected HEK293 cells; format: cell-based, human
Protocol: In one of the embodiments of the invention, the cell-based assay consists of transfected cDNAs encoding full-length PCSK9 and LDL receptor, each sequence linked in-frame to rationally designed fragments of a variant of green fluorescent protein. These two plasmid constructs were co-expressed in human HEK cells plated in 384-well poly-lysine coated plates. After 24-48 hours of incubation, drugs (or vehicle controls) were added to the media, and the existence and localization of PCSK9/LDL receptor complexes was quantified on an Opera automated confocal fluorescence microscopy platform (Perkin Elmer). Images were subjected to automated image analysis, and results quantified and subjected to statistical analysis.
HEK 293T cells were seeded in normal growth media containing DMEM and 10% FBS at 1.5×10^4 in PDL-coated 96-well plates 24 hours prior to transfection. Cells were transfected with 50 ng of each construct DNA per well with Fugene 6, using conditions recommended by the manufacturer. Cells were allowed to express the construct pairs for 24- or 48 h, then the cells were simultaneously fixed and stained with either a 1:300 dilution of Hoescht 33342 (Molecular Probes, Eugene, Oreg.) or a 1:1000 dilution of Draq5 (Biostatus, Shepshed, Leicestershire, U.K.) in 4% formaldehyde for 15 minutes at room temperature. The cells were washed to remove fixative, and overlaid with a small volume of Hank's Buffered Salt Solution. Images were acquired on a Discovery-1 (Molecular Devices) epifluorescence microscope using the 20× objective, and DAPI and FITC filter sets. (with excitation at 350 and 488 nm wave lengths) or on an Opera (Perkin Elmer) confocal microscope using the 20× water objective with the following excitation and emission settings: Ex 488 nm/Em 535 nm (YFP) and Ex 635 nm/Em 640 nm (Draq5).
To test for in vitro PCSK9 function and activity, we developed a protein complementation assay (PCA) with PCSK9-IFP2 and the LDL-IFP1 receptor (PCSK9/LDLR). Expression of wild type PCSK9-IFP2 in transfected HEK293 cells was confirmed by Western blot using an antibody against YFP (FIG. 2). Cotranfection of HEK cells with increasing ratios of PCSK9-IFP2 and LDLR-IFP1 DNA constructs results in increased PCA signal (FIG. 3) but not when each construct is expressed alone. The intracellular localization of the wild-type PCSK9-IFP2/LDLR-IFP1 PCA interaction is similar to the known localization of wild type PCSK9 in the endoplasmic reticulum (ER) and post-ER compartments in various cell types (20, 21). The PCA signal for the PCSK9-IFP2/LDLR-IFP1 pair appears to be localized to multiple intracellular trafficking sites including the ER, endosomes and the cell surface.
In order to test the viability of using the PCSK9-IFP2/LDLR-IFP1 PCA as a drug discovery tool, we tested a drug plate containing 50 known drugs at 3 doses in the assay (Table 10) as well as several protein kinase inhibitors (representative compounds are depicted in Table 11). […] We observed the following effects of known compounds on the PCSK9/LDLR complex:
A collection of small molecular weight compounds was screened. […] To expand on this observation, we characterized the effects of a larger panel of kinase inhibitors on the PCSK9/LDLr complex. 47 compounds representing a broad range of known receptor tyrosine and serine-threonine kinase inhibitors were assessed (table 2). A subset was identified that had inhibitory effects on the PCSK9/LDLr complex (degree of assay inhibition relative to control is indicated by “% control”, Table 2).

HepG2 cells = test: LDL uptake in HepG2 cells (human LDL conjugated to DyLight 549); format: cell-based; conditions: for effect on LDL uptake (in words): HepG2, 10 μM; for x-fold increase (hepatic LDL uptake): HepG2
Description: The assay uses human LDL conjugated to DyLight™ 549 as a fluorescent probe for detection of LDL uptake into HepG2 cells.
We assessED whether compounds that inhibit the PCSK9/LDLr assay would have activity on LDL uptake and metabolism in a relevant cell type. PCSK9 is thought to be a negative regulator of LDLr. Thus, we predicted that compounds inhibiting the PCSK9 PCA signal would increase LDL receptor expression and LDL uptake. An assay using human LDL conjugated to DyLight™ 549 as a fluorescent probe for detection of LDL uptake into cultured human hepatocytes. A separate assay, using an LDL receptor-specific polyclonal antibody and a DyLight™ 488-conjugated secondary antibody, was also performed to localize LDL receptors
Quantitation of the increased LDL uptake of these and other kinase inhibitors targeting Akt, mTOR, p38, GSK3 and VEGF is shown in Table 4.

Compound: Oc1cccc(-c2nc(N3CCOCC3)c3sccc3n2)c1 [PI 3-K alpha Inhibitor IV, 3-(4-Morpholinothieno[3,2-d]pyrimidin-2-yl)phenol]
- % Control (PCSK9/LDLr PCA) (PCSK9/LDLR complex; dose 30 μM): 46%

Compound: CCOC(=O)N1CCC(=C2c3ccc(Cl)cc3CCc3cccnc32)CC1 [Loratidine]
- % Control (PCSK9/LDLr PCA) (PCSK9/LDLR complex; dose 30 μM): 59%

Compound: C=C1CC[C@@H]2[C@](C)(CO)CCC[C@@]2(C)[C@@H]1CCC1=CCOC1=O [Andrograpanin]
- % Control (PCSK9/LDLr PCA) (PCSK9/LDLR complex; dose 100 μM): 40%

Compound: Cc1cn(-c2cc(NC(=O)c3ccc(C)c(Nc4nccc(-c5cccnc5)n4)c3)cc(C(F)(F)F)c2)cn1 [Nilotinib]
- effect on formation of PCSK9/LDLR complexes / PCA signal (in words) (PCSK9/LDLR complex): inhibit the formation of PCSK9/LDLR complexes
- % Control (PCSK9/LDLr PCA) (PCSK9/LDLR complex; dose 3 μM): 48%
- % Control (PCSK9/LDLr PCA) (PCSK9/LDLR complex; dose 10 μM): 65%

Compound: CN[C@H]1CC[C@@H](c2ccc(Cl)c(Cl)c2)c2ccccc21 [Sertraline]
- % Control (PCSK9/LDLr PCA) (PCSK9/LDLR complex; dose 100 μM): 46%

Compound: CCOc1cc2ncc(C#N)c(Nc3ccc(OCc4ccccn4)c(Cl)c3)c2cc1NC(=O)/C=C/CN(C)C [Neratinib]
- effect on LDL uptake (in words) (HepG2 cells): dramatic increase in LDL uptake
- x-fold increase (LDL uptake in Hepg2 cells) (HepG2 cells; dose 10 μM): 2.2 x-fold
- x-fold increase (hepatic LDL uptake) (HepG2 cells; dose 10 µM): 2.2 x-fold
- % Control (PCSK9/LDLr PCA) (PCSK9/LDLR complex; dose 1 μM): 64%
- % Control (PCSK9/LDLr PCA) (PCSK9/LDLR complex; dose 3 μM): 61%

Compound: O=C1NC(=O)C(=Cc2ccc(-c3ccc(F)cc3O)o2)S1 [PI3K gamma/CKII inhibitor, (5-(4-Fluoro-2-hydroxyphenyl)furan-2-ylmethylene)thiazolidine-2,4-dione]
- % Control (PCSK9/LDLr PCA) (PCSK9/LDLR complex; dose 3 μM): 57%
- % Control (PCSK9/LDLr PCA) (PCSK9/LDLR complex; dose 10 μM): 47%

Compound: COc1cc2c(Nc3ccc(Br)cc3F)ncnc2cc1OCC1CCN(C)CC1 [Vandetanib]
- x-fold increase (LDL uptake in Hepg2 cells) (HepG2 cells; dose 1 μM): 1.5 x-fold
- x-fold increase (hepatic LDL uptake) (HepG2 cells; dose 1 µM): 1.5 x-fold
- x-fold increase (LDL uptake in Hepg2 cells) (HepG2 cells; dose 3 μM): 2.0 x-fold
- x-fold increase (hepatic LDL uptake) (HepG2 cells; dose 3 µM): 2.0 x-fold
- % Control (PCSK9/LDLr PCA) (PCSK9/LDLR complex; dose 100 μM): 39%

Compound: COc1cc2ncnc(Nc3ccc(Oc4ccccc4)cc3)c2cc1OC [Src Kinase Inhibitor I, 4-(4-prime-Phenoxyanilino)-6,7-dimethoxyquinazoline]
- effect on LDL uptake (in words) (HepG2 cells): dramatic increase in LDL uptake
- x-fold increase (LDL uptake in Hepg2 cells) (HepG2 cells; dose 3 μM): 2.3 x-fold
- x-fold increase (LDL uptake in Hepg2 cells) (HepG2 cells; dose 10 μM): 5.1 x-fold
- x-fold increase (hepatic LDL uptake) (HepG2 cells; dose 10 µM): 5.1 x-fold
- % Control (Table 5, titled LDL uptake in Hepg2 cells) (HepG2 cells; dose 12.5 μM, values repeat Table 2): 50%
- x-fold increase (hepatic LDL uptake) (HepG2 cells; dose 3 µM): 2.3 x-fold
- % Control (PCSK9/LDLr PCA) (PCSK9/LDLR complex; dose 12.5 μM): 50%

Compound: CN(C)CCCN1c2ccccc2CCc2ccc(Cl)cc21 [Clomipramine]
- % Control (PCSK9/LDLr PCA) (PCSK9/LDLR complex; dose 50 μM): 46%

Compound: C=C1CC[C@@H]2[C@](C)(CO)[C@H](O)CC[C@@]2(C)[C@@H]1C/C=C1/C(=O)OC[C@H]1O [Andrographolide]
- % Control (PCSK9/LDLr PCA) (PCSK9/LDLR complex; dose 100 μM): 43%

Compound: Cc1c(OCC(F)(F)F)ccnc1C[S+]([O-])c1nc2ccccc2[nH]1 (centres unmarked) [Lanzoprazole]
- effect on formation of PCSK9/LDLR complexes / PCA signal (in words) (PCSK9/LDLR complex): inhibit the formation of PCSK9/LDLR complexes
- % Control (PCSK9/LDLr PCA) (PCSK9/LDLR complex; dose 100 μM): 53%

Compound: COC[C@H]1OC(=O)c2coc3c2[C@@]1(C)C1=C(C3=O)[C@@H]2CCC(=O)[C@@]2(C)C[C@H]1OC(C)=O [Wortmannin]
- % Control (PCSK9/LDLr PCA) (PCSK9/LDLR complex; dose 1.5 μM): 63%

Compound: CC(C)(C)c1ccc(C(O)CCCN2CCC(C(O)(c3ccccc3)c3ccccc3)CC2)cc1 (centres unmarked) [Terfenadine]
- % Control (PCSK9/LDLr PCA) (PCSK9/LDLR complex; dose 10 μM): 59%

Compound: CC[C@H](CO)Nc1nc(NCc2ccccc2)c2ncn(C(C)C)c2n1 [Roscovitine]
- % Control (PCSK9/LDLr PCA) (PCSK9/LDLR complex; dose 40 μM): 54%

Compound: O=NN(CCCl)C(=O)NC1CCCCC1 [Lomustine]
- % Control (PCSK9/LDLr PCA) (PCSK9/LDLR complex; dose 50 μM): 50%
- % Control (PCSK9/LDLr PCA) (PCSK9/LDLR complex; dose 150 μM): 54%
